From US8580762B2, “Substituted purine and 7-deazapurine compounds” (Epizyme, Inc., priority 2010, dated 2013) come the findings set out here.

DOT1L(1-416), sequence (Q8TEK3 1-416): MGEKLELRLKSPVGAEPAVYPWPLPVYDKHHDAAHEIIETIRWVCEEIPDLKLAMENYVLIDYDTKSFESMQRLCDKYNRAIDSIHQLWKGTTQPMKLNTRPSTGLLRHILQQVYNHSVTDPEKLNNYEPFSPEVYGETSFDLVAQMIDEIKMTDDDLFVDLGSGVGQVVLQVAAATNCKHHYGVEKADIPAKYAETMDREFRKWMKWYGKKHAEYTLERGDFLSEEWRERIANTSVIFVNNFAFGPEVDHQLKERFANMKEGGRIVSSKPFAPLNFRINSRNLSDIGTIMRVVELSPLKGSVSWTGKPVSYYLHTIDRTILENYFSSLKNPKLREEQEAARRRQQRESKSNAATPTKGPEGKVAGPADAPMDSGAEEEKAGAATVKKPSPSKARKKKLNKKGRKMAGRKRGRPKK

The first assay addresses DOT1L(1-416) (Homo sapiens, UniProt Q8TEK3). The assay can be described thus: Determination of IC50: DOT1L(1-416) methyltransferase assay, 3H-SAM, oligonucleosome substrate, Flashplate. The assay is classed as biochemical. The settings on record: class symbols; read-out: DOT1L IC50. In outline: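 Compounds in 10-point 3-fold DMSO dilutions were tested in reactions started with substrate mix of 200 nM [3H]-SAM, 600 nM unlabeled SAM and 20 nM oligonucleosome. Reactions ran 120 min at room temperature and were quenched with 100 μM SAM. Labeled substrate was captured on streptavidin Flashplates and counted by scintillation to give IC50.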
In the case of `CN(C[C@H]1O[C@@H](n2cnc3c(N)ncnc32)[C@H](O)[C@@H]1O)C1CC(CNC(=O)Nc2ccc(C(C)(C)C)cc2)C1` (stereo partly drawn) [Compound 110, 1-((3-((((2R,3S,4R,5R)-5-(6-amino-9H-purin-9-yl)-3,4-dihydroxytetrahydrofuran-2-yl)methyl)(methyl)amino)cyclobutyl)methyl)-3-(4-(tert-butyl)phenyl)urea], the IC50 was below 100 nM.

In the case of `CC(C)CN(C[C@H]1C[C@@H](n2ccc3c(N)ncnc32)[C@H](O)[C@@H]1O)[C@H]1C[C@@H](CCc2nc3cc(C(C)(C)C)ccc3[nH]2)C1` [Compound 53, (1R,2S,3R,5R)-3-(4-amino-7H-pyrrolo[2,3-d]pyrimidin-7-yl)-5-((((1r,3S)-3-(2-(5-(tert-butyl)-1H-benzo[d]imidazol-2-yl)ethyl)cyclobutyl)(isobutyl)amino)methyl)cyclopentane-1,2-diol], the 50% inhibitory concentration (IC50) was below 100 nM.

Turning to `CN(C[C@H]1C[C@@H](n2ccc3c(N)ncnc32)[C@H](O)[C@@H]1O)[C@H]1C[C@H](CCc2nc3cc(C(F)(F)F)c(Cl)cc3[nH]2)C1` [Compound 12, (1R,2S,3R,5R)-3-(4-amino-7H-pyrrolo[2,3-d]pyrimidin-7-yl)-5-((((1s,3R)-3-(2-(6-chloro-5-(trifluoromethyl)-1H-benzo[d]imidazol-2-yl)ethyl)cyclobutyl)(methyl)amino)methyl)cyclopentane-1,2-diol], the IC50 was below 100 nM.

As for `CN(C[C@H]1C[C@@H](n2ccc3c(N)ncnc32)[C@H](O)[C@@H]1O)[C@H]1C[C@@H](CCc2nc3cc(C(F)(F)F)c(Cl)cc3[nH]2)C1` [Compound 9, (1R,2S,3R,5R)-3-(4-amino-7H-pyrrolo[2,3-d]pyrimidin-7-yl)-5-((((1r,3S)-3-(2-(6-chloro-5-(trifluoromethyl)-1H-benzo[d]imidazol-2-yl)ethyl)cyclobutyl)(methyl)amino)methyl)cyclopentane-1,2-diol], the IC50 is below 100 nM.

For the compound `CN(C[C@H]1O[C@@H](n2cnc3c(N)ncnc32)[C@H](O)[C@@H]1O)[C@H]1C[C@H](CCc2nc3cc(C4CC4)ccc3[nH]2)C1` [Compound 134, (2R,3R,4S,5R)-2-(6-amino-9H-purin-9-yl)-5-((((1s,3R)-3-(2-(5-cyclopropyl-1H-benzo[d]imidazol-2-yl)ethyl)cyclobutyl) (methyl)amino)methyl) tetrahydrofuran-3,4-diol], the IC50 is below 100 nM.

Regarding `CC(C)N(C[C@@H]1C[C@@H](O)[C@H](n2ccc3c(N)ncnc32)C1)[C@H]1C[C@H](CCc2nc3cc(Cl)c(C(F)(F)F)cc3[nH]2)C1` [Compound 103, (1R,2R,4S)-2-(4-amino-7H-pyrrolo[2,3-d]pyrimidin-7-yl)-4-((((1s,3S)-3-(2-(5-chloro-6-(trifluoromethyl)-1H-benzo[d]imidazol-2-yl)ethyl)cyclobutyl) (isopropyl)amino)methyl)cyclopentanol], the half-maximal inhibitory concentration (IC50) was 1000 to 10000 nM.

Take `CN(C[C@H]1O[C@@H](n2ccc3c(N)ncnc32)[C@H](O)[C@@H]1O)[C@H]1C[C@@H](CCc2nc3cc(C(C)(C)C)ccc3[nH]2)C1` [Compound 86, (2R,3R,4S,5R)-2-(4-amino-7H-pyrrolo[2,3-d]pyrimidin-7-yl)-5-((((1r,3S)-3-(2-(5-(tert-butyl)-1H-benzo[d]imidazol-2-yl)ethyl)cyclobutyl) (methyl)amino)methyl) tetrahydrofuran-3,4-diol]: the IC50 was below 100 nM.

On to `CN(C[C@H]1O[C@@H](n2cnc3c(N)ncnc32)[C@H](O)[C@@H]1O)C1CC(CCc2nc3cc(C4(C#N)CC4)ccc3[nH]2)C1` (stereo partly drawn) [Compound 130, 1-(2-(2-(3-((((2R,3S,4R,5R)-5-(6-amino-9H-purin-9-yl)-3,4-dihydroxytetrahydro-furan-2-yl)methyl)(methyl)amino)cyclobutyl)ethyl)-1H-benzo[d]imidazol-5-yl)cyclo-propanecarbonitrile], for which the half-inhibitory concentration (IC50) was below 100 nM.

As to `CN(C[C@H]1C[C@@H](n2ccc3c(N)ncnc32)[C@H](O)[C@@H]1O)[C@H]1C[C@H](CCc2nc3cc(C4(C)CCC4)ccc3[nH]2)C1` [Compound 39], the IC50 is below 100 nM.

With `CC(C)N(C[C@H]1O[C@@H](n2ccc3c(N)ncnc32)[C@H](O)[C@@H]1O)[C@H]1C[C@@H](CCc2nc3cc(C(C)(C)C)ccc3[nH]2)C1` [Compound 90, (2R,3R,4S,5R)-2-(4-amino-7H-pyrrolo[2,3-d]pyrimidin-7-yl)-5-((((1r,3S)-3-(2-(5-(tert-butyl)-1H-benzo[d]imidazol-2-yl)ethyl)cyclobutyl)(isopropyl)amino)methyl)tetrahydrofuran-3,4-diol], the IC50 was below 100 nM.

For the compound `CCN(C[C@H]1O[C@@H](n2ccc3c(N)ncnc32)[C@H](O)[C@@H]1O)[C@H]1C[C@H](CCc2nc3cc(C(C)(C)C)ccc3[nH]2)C1` [Compound 88, (2R,3R,4S,5R)-2-(4-amino-7H-pyrrolo[2,3-d]pyrimidin-7-yl)-5-((((1s,3R)-3-(2-(5-(tert-butyl)-1H-benzo[d]imidazol-2-yl)ethyl)cyclobutyl) (ethyl)amino)methyl) tetrahydrofuran-3,4-diol], the IC50 is below 100 nM.

For the compound `CC(C)CN(C[C@H]1C[C@@H](n2ccc3c(N)ncnc32)[C@H](O)[C@@H]1O)C1CC(CCc2nc3cc(C(C)(C)C)ccc3[nH]2)C1` (stereo partly drawn) [Compound 45, (1R,2S,3R,5R)-3-(4-amino-7H-pyrrolo[2,3-d]pyrimidin-7-yl)-5-(((3-(2-(5-(tert-butyl)-1H-benzo[d]imidazol-2-yl)ethyl)cyclobutyl)(isobutyl)amino)methyl)cyclopentane-1,2-diol], the IC50 is below 100 nM.

As to `COCC(C)(C)c1ccc2[nH]c(CC[C@H]3C[C@H](N(C[C@H]4O[C@@H](n5cnc6c(N)ncnc65)[C@H](O)[C@@H]4O)C(C)C)C3)nc2c1` [Compound 121, (2R,3R,4S,5R)-2-(6-amino-9H-purin-9-yl)-5-((isopropyl((1s,3R)-3-(2-(5-(1-methoxy-2-methylpropan-2-yl)-1H-benzo[d]imidazol-2-yl)ethyl)cyclobutyl)amino)methyl) tetrahydrofuran-3,4-diol], the IC50 was below 100 nM.

On to `CC(C)N(C[C@H]1O[C@@H](n2cnc3c(N)ncnc32)[C@H](O)[C@@H]1O)C1CC(CCc2nc3cc(C4CCC4)ccc3[nH]2)C1` (stereo partly drawn) [Compound 67, (2R,3R,4S,5R)-2-(6-amino-9H-purin-9-yl)-5-[({3-[2-(5-cyclobutyl-1H-1,3-benzodiazol-2-yl)ethyl]cyclobutyl}(propan-2-yl)amino)methyl]oxolane-3,4-diol], for which the IC50 is below 100 nM.

As for `CC(C)N(C[C@H]1O[C@@H](n2cnc3c(N)ncnc32)[C@H](O)[C@@H]1O)C1CC(CCc2nc3cc(C4(C)CCC4)ccc3[nH]2)C1` (stereo partly drawn) [Compound 27, (2R,3R,4S,5R)-2-(6-amino-9H-purin-9-yl)-5-((isopropyl(3-(2-(5-(1-methylcyclobutyl)-1H-benzo[d]imidazol-2-yl)ethyl)cyclobutyl)amino)methyl)tetrahydrofuran-3,4-diol], the concentration for half-maximal inhibition (IC50) was below 100 nM.

Consider `CN(C[C@H]1C[C@@H](n2ccc3c(N)ncnc32)[C@H](O)[C@@H]1O)[C@H]1C[C@H](CCc2nc3cc(OC(F)(F)F)ccc3[nH]2)C1` [Compound 57, (1R,2S,3R,5R)-3-(4-amino-7H-pyrrolo[2,3-d]pyrimidin-7-yl)-5-((methyl((1s,3R)-3-(2-(5-(trifluoromethoxy)-1H-benzo[d]imidazol-2-yl)ethyl)cyclobutyl)amino)methyl)cyclopentane-1,2-diol], for which the IC50 was below 100 nM.

As for `CN(C[C@H]1O[C@@H](n2cnc3c(N)ncnc32)[C@H](O)[C@@H]1O)[C@H]1C[C@H](CCc2nc3cc(C4(C)CCC4)ccc3[nH]2)C1` [Compound 34], the IC50 is below 100 nM.

As to `CC(C)(C)c1ccc2[nH]c(CCC3CC(N(C[C@H]4C[C@@H](n5ccc6c(N)ncnc65)[C@H](O)[C@@H]4O)C4CCC4)C3)nc2c1` (stereo partly drawn) [Compound 43, (1R,2S,3R,5R)-3-(4-amino-7H-pyrrolo[2,3-d]pyrimidin-7-yl)-5-(((3-(2-(5-(tert-butyl)-1H-benzo[d]imidazol-2-yl)ethyl)cyclobutyl)(cyclobutyl)amino)methyl)cyclopentane-1,2-diol], the IC50 is below 100 nM.

On to `CC(C)N(C[C@@H]1C[C@@H](O)[C@H](n2ccc3c(N)ncnc32)C1)[C@H]1C[C@@H](CCc2nc3cc(Cl)c(C(F)(F)F)cc3[nH]2)C1` [Compound 105, (1R,2R,4S)-2-(4-amino-7H-pyrrolo[2,3-d]pyrimidin-7-yl)-4-((((1r,3R)-3-(2-(5-chloro-6-(trifluoromethyl)-1H-benzo[d]imidazol-2-yl)ethyl)cyclobutyl) (isopropyl)amino)methyl)cyclopentanol], for which the 50% inhibitory concentration (IC50) lay in the range of 1000 to 10000 nM.

Regarding `CN(C[C@H]1O[C@@H](n2cnc3c(N)ncnc32)[C@H](O)[C@@H]1O)[C@H]1C[C@@H](CCc2nc3cc(C4CCC4)ccc3[nH]2)C1` [Compound 131, (2R,3R,4S,5R)-2-(6-amino-9H-purin-9-yl)-5-((((1r,3S)-3-(2-(5-cyclobutyl-1H-benzo[d]imidazol-2-yl)ethyl)cyclobutyl) (methyl)amino)methyl) tetrahydrofuran-3,4-diol], the IC50 is below 100 nM.

Turning to `CN(C[C@H]1C[C@@H](n2ccc3c(N)ncnc32)[C@H](O)[C@@H]1O)C1CC(CCc2nc3cc(C4(C)CCC4)ccc3[nH]2)C1` (stereo partly drawn) [Compound 29, (1R,2S,3R,5R)-3-(4-amino-7H-pyrrolo[2,3-d]pyrimidin-7-yl)-5-((methyl(3-(2-(5-(1-methylcyclobutyl)-1H-benzo[d]imidazol-2-yl)ethyl)cyclobutyl)amino)methyl)cyclopentane-1,2-diol], the IC50 is below 100 nM.

For the compound `CN(C[C@H]1O[C@@H](n2cnc3c(N)ncnc32)[C@H](O)[C@@H]1O)[C@H]1C[C@@H](CCc2nc3cc(OC(F)(F)F)ccc3[nH]2)C1` [Compound 96, (2R,3R,4S,5R)-2-(6-amino-9H-purin-9-yl)-5-((methyl((1r,3S)-3-(2-(5-(trifluoromethoxy)-1H-benzo[d]imidazol-2-yl)ethyl)cyclobutyl)amino)methyl)tetrahydrofuran-3,4-diol], the IC50 was below 100 nM.

Staying with this assay, now noted: read-out: DOT1L IC50.
As to `CN(C[C@H]1O[C@@H](n2ccc3c(N)ncnc32)[C@H](O)[C@@H]1O)[C@H]1C[C@@H](CCc2nc3cc(C(C)(C)C)ccc3[nH]2)C1` [Compound 86, (2R,3R,4S,5R)-2-(4-amino-7H-pyrrolo[2,3-d]pyrimidin-7-yl)-5-((((1r,3S)-3-(2-(5-(tert-butyl)-1H-benzo[d]imidazol-2-yl)ethyl)cyclobutyl) (methyl)amino)methyl) tetrahydrofuran-3,4-diol], the IC50 came out at 0.62 nM.

The term IC50 denotes the concentration that inhibits the measured activity by half.
